Experiments:
[1] = change in body weight during dermal application; details: after 4 weeks of application, 3 mg/mouse/day dermal
Experimental: Experiments were carried out using 24 male C57BL/6N mice aged 6 weeks, which were purchased from OrientBio Inc., acclimated for two weeks in a laboratory environment, and then divided into a total of three groups (n=5) of a negative control (CON), a positive control (MXD) and a nonanal group (NN). An animal laboratory was maintained at 21±2.0° C., a relative humidity of 50±5%, on a 12-hour day/night cycle. During the experimental period, a general solid feed (chow) and water were freely offered to the mice.
To investigate a hair development effect, an 8-week-old mouse with telogen-phase hair, in which a dorsal skin color was pink, were used. The dorsal hair of the mouse was removed using a clipper for a mouse, and the sample was applied daily at 4 p.m. for 4 weeks. The test material nonanal (3 mg/mouse/day) and the control drug Minoxidil (3 mg/mouse/day) were applied after being dissolved in the vehicle (ethanol:water:propylene glycol=5:3:2), and only the vehicle was applied to the negative control group.
A body weight of the experimental animal from immediately before the application of an agent for hair development to the end of the application was measured weekly.

telogen-phase hair = assay: hair development state and hair length in shaved mice; assay type: in vivo, C57BL/6N mice; details: dermal 3 mg/mouse/day
Experimental: To visually examine a hair growth state, 1, 2, 3, and 4 weeks after the application started, the experimental animals were slightly anesthetized with ether, and a dorsal region was photographed. To evaluate the degree of hair growth, the hair length was measured using a ruler.

hair follicles = assay: histological analysis of dorsal skin; assay type: in vivo, C57BL/6N mice; details: 4 weeks of application
From the text: The experimental animals were sacrificed after four weeks of the application, and a dorsal skin tissue specimen was extracted from the test material-applied region using scissors and forceps, and then fixed with formalin. By steps, the resulting specimen was dehydrated with an alcohol and xylene, embedded in paraffin, sliced into a 5-μm fragment using a microtome, and treated again with an alcohol and xylene to remove paraffin. After hematoxylin-eosin staining, a histological change in hair follicle tissue was observed using an optical microscope. The hair development cycle was evaluated by a pathologist, the number and diameter of hair follicles were measured using an optical microscope, and the number of hair follicles in the test group was measured under a 40× optical microscope.

β-catenin [2] = assay: Western blot of dorsal skin tissue; assay type: in vivo, mouse; details: Western blotting
Experimental: A predetermined amount of skin tissue was homogenized with liquid nitrogen and a lysis buffer using a mortar and centrifuged at 13,000×g and 4° C. for 20 minutes to obtain an intermediate layer, and then a protein was quantified by the Bradford method. 50 μg of the protein was subjected to electrophoresis on an SDS polyacrylamide gel and electroblotted onto a PVDF hyperfilm, and then reacted with a β-catenin or β-actin antibody (Cell Signaling Technology, Danvers, Mass., USA). A signal of each protein was visualized using a chemiluminescent detection system (Amersham), and then a band thickness was quantified using the Quantity One Analysis Software (Bo-Rad Laboratories).

Cyclin D1 = assay: q-PCR gene expression in dorsal skin tissue; assay type: in vivo, mouse; details: 4 weeks
Experimental: (§1) To quantify total RNA in skin tissue of the experimental animals, 1 mL of a TRIzol solution was added to 50 to 100 mg of skin tissue and homogenized, and then centrifuged at 4° C. and 12,000×g for 10 minutes. The supernatant was transferred to a new tube, 200 μl of chloroform was added, and then the resulting mixture was vigorously shaken. This process was repeated twice, then the supernatant was transferred to a new tube, in which isopropanol and the supernatant were added in a ratio of 1:1. The resulting mixture was shaken 10 times, and maintained at room temperature for 10 minutes and centrifuged at 12,000×g and 4° C. for 10 minutes to remove the supernatant. Then, 1 ml of 70% ethanol was added to the remaining pellet and centrifuged at 7,500×g and 4° C. for 5 minutes. Following the removal of ethanol, a tube containing the RNA pellet was dried at room temperature for 5 minutes, and the RNA pellet was dissolved in nuclease-free water. Concentrations of the extracted RNA specimens at 260 nm and 280 nm wavelengths were measured using a UV/VIS spectrophotometer (Beckman Coulter, DU730), and agarose gel electrophoresis was performed to confirm the integrity of the RNA specimens.
(§2) Following the isolation of RNA, cDNA was synthesized by performing reverse transcription using an oligo dT primer and a Superscript reverse transcriptase (Gibco BRL, Gaithersburg, Md., USA). To measure expression levels of genes, real-time q-PCR was performed using SYBR Green (Bio-Rad, Hercules, Calif., USA), and the instrument used was a CFX Connect™ Real-Time PCR Detection System (Bio-Rad).
(§3) For real time PCR, 2 μL of cDNA, 10 μL of a 2× SYBR mix, 1 μL each of a forward primer and a reverse primer (10 to 20 pmol/μL) were added, and then, H2O was filled to the final volume 20 μL. A PCR extension step was performed as follows, and 35 extension cycles was performed. The extension was performed at 95° C. for 1 minute for hot start, at 95° C. for 15 seconds for denaturation in the extension step, at 55° C. for 30 seconds for annealing, and at 72° C. for 1 minute for extension. After all cycles were completed, to identify primer specificity, melting curve analysis was performed.
(§4) Change in expression of a β-catenin signaling material known as a mechanism for promoting hair development in skin tissue was analyzed by q-PCR analysis on dorsal skin tissue of a mouse to which the test material was applied for 4 weeks.

[3] = system: Lymphoid enhancer factor (LEF); assay: q-PCR gene expression in dorsal skin tissue; assay type: in vivo, mouse; details: 4 weeks
Experimental: as §1, §2, §3, §4

T-Cell factor (TCF) = assay: q-PCR gene expression in dorsal skin tissue; assay type: in vivo, mouse; details: 4 weeks
Experimental: as §1, §2, §3, §4

β-catenin [4] = assay: q-PCR gene expression in dorsal skin tissue; assay type: in vivo, mouse; details: 4 weeks
Experimental: as §1, §2, §3, §4

rats = details: oral; cited from earlier work
[5] = clinical studies, 1% solution; cited from earlier work
diarrhea-induced mice = details: cited from earlier work
rabbits = details: transdermal; cited from earlier work

SMILES | body weight, difference between test groups [1] | hair length at three weeks (telogen-phase hair; 3 weeks) | visual hair growth after 4 weeks (telogen-phase hair; 4 weeks, vs negative control) | increase in hair length compared with negative control (telogen-phase hair; after four weeks, p<0.001) | visual hair growth (onset) (telogen-phase hair; weekly photographs) | increase in number of hair follicles compared with negative control (hair follicles) | microscopy of hair follicles (hair follicles) | increase in hair follicle diameter compared with negative control (hair follicles; image analysis) | increase in β-catenin protein expression compared with negative control (β-catenin [2]) | β-catenin protein expression effect compared with Minoxidil group (β-catenin [2]) | cyclin D1 gene expression compared with negative control (Cyclin D1) | LEF gene expression compared with negative control [3] | TCF gene expression compared with negative control (T-Cell factor (TCF)) | β-catenin gene expression compared with negative control (β-catenin [4]) | lethal dose 50% (LD50 value) (rats) | dermal irritation or sensitization reaction [5] | inhibition of diarrhea (diarrhea-induced mice) | LD50 value (rabbits)
Nc1cc(N2CCCCC2)nc(N)[n+]1[O-] [Minoxidil] | no significant difference |  |  |  |  |  |  |  |  |  |  |  |  |  |  |  |  | 
CCCCCCCCC=O [nonanal] |  | significantly increased | hair grew more evenly and fully in more individuals than that in the negative control group | 434% | from three weeks of the application, hair began to grow | 166% | hair follicles elongated to come out of the skin | 38% | 71% | superior to that of the Minoxidil group | significantly increased | significantly increased | significantly increased | significantly increased | 5,000 mg/kg | no dermal irritation or sensitization reaction | significant effect in inhibition of diarrhea | 5,000 mg/kg

Source: US20190151256A1, “Composition Including Nonanal As Active Ingredient For Preventing Hair Loss Or Stimulating Hair Development” (Industry-Academic Cooperation Foundation, Yonsei University, priority 2017, published 2019)
